We go through 1 compound from patent US8003312B2, “Multiplex cellular assays using detectable cell barcodes” (The Board of Trustees of the Leland Stanford Junior …, priority 2007, dated 2011).

What all share (assay type): cell-based, human
The subject of one assay is ERK phosphorylation. The assay can be described thus: 96-well FCB drug screen in Jurkat cells: T-cell receptor-mediated ERK phosphorylation. The conditions noted are these: 20 μM, 45 min before stimulation with anti-CD3, anti-CD28 and IFN-γ for 5 min. On the procedure:
(§1) FIG. 5. Use of FCB in drug screening platforms. […] (a) Layout of screening experiment. Jurkat cells were treated with 70 known small-molecule kinase or phosphatase inhibitors (20 μM), Jak inhibitor I (2 μM) or U0126 (20 μM) for 45 min before stimulation with 5 μg/ml anti-CD3 and anti-CD28 and 10 ng/ml IFN-γ for 5 min. (b) FCB setup for barcoding of 96-well plate. After fixation, cells were barcoded with Alexa 700-NHS (0, 0.06, 0.25 or 1 μg/ml) to delineate the four quadrants of the 96-well plate. Each quadrant was subdivided into four rows labeled with Pacific Blue-NHS (0, 0.04, 0.2 or 1 μg/ml) and six columns labeled with Alexa 488-NHS (0, 0.02, 0.06, 0.18, 0.5 or 1.5 μg/ml). Shown are pseudocolor FACS plots of the actual gating scheme used to deconvolute the samples in quadrant 4, row D (bottom right six samples in the plate). […] Wells with black triangles were excluded from the analysis due to high fluorescence of the drug in the phospho-protein fluorescence channels. Colored squares are drawn over wells analyzed in d. […]
(§2) Because most cell-based high-throughput screens use 96-well microtiter plates, we next addressed the question whether the technique could be adapted to a 96-well plate. […] We also calculated the Z′ factor from these samples, and it was 0.71 for Stat1 and 0.69 for ERK, indicating robust assay performance. […]

In assay [1] the test system is Stat1 and ERK phosphorylation. The assay can be described thus: Titration of four screening hits in Jurkat cells using six-sample FCB (pStat1, pERK). The conditions noted are these: 30 min before IFN-γ (10 ng/ml) and anti-CD3/28 (5 μg/ml each). How it is done: FIG. 8. Detailed titration of four hits from Jurkat drug screening experiment (FIG. 5). a) Four compounds: Bay11-7082, Indirubin-3-monoxime, PP2, and ZM449829 were added to Jurkat cells at different concentrations for 30 min prior to stimulation with IFN-γ (10 ng/ml) and anti-CD3/28 (5 μg/ml each). The cells were fixed and permeabilized, then stained with pStat1 Ax647 and pERK Ax488 antibodies. Percent inhibition of phosphorylation was plotted against concentration of drugs and fitted with a logistic regression curve to obtain IC50 values. Numbers in the top right of each plot are the IC50 value in μM units. b) Lysates were prepared from the same cells used for phospho flow and analyzed by western blot with pStat1 and pERK antibodies. Drugs were applied at 20 μM (same concentration as initial screen) for western blot analysis.
Because a few of these hits were unexpected, we performed titration experiments using six-sample FCB on four of the compounds to validate the results (FIG. 8).
We calculated fold change of phosphorylation upon stimulation by dividing median fluorescence intensity (MFI) of stimulated samples by the MFI of unstimulated samples: FC=MFIstim/MFIunstim. For heat map analysis, FC was converted to log2 values to enhance visualization and so that samples showing no change have a value of zero. To measure drug activity, we calculated percent inhibition as follows: Percent Inhibition=1−((MFItreated ? MFIunstim)/(MFIstim ? MFIunstim)), where “treated” denotes drug treated (and stimulated) samples, “stim” denotes control stimulated (non drug treated) samples, and “unstim” denotes control unstimulated (non drug treated) samples. We calculated Z′-factor from control stimulated and unstimulated samples by the following: Z′-factor=1 ? ((3[…]SDstim 3[…]SDunstim)/(meanstim ? meanunstim)), where “SD” denotes standard deviation of the mean, and “mean” denotes the mean of either stimulated or unstimulated MFI values. Z′-factor is an indication of the robustness and suitability of an assay for high throughput screening, with values from 0.5 to 1 indicating an excellent assay, 0 to 0.5 indicating a usable assay, and less than 0 indicating the assay has too much noise or inadequate dynamic range.

For another assay, the system named is Stat1 phosphorylation. Kind of assay: 96-well FCB drug screen in Jurkat cells: Stat1 phosphorylation induced by IFN-γ. The conditions noted are these: 20 μM, 45 min before stimulation with anti-CD3, anti-CD28 and IFN-γ for 5 min. On the procedure: as §1, §2

On to `Cc1ccc(S(=O)(=O)/C=C/C#N)cc1` [Bay11-7082], for which, in the assay on ERK phosphorylation, the “inhibition of ERK phosphorylation” value is on record as 50%. Also, in assay [1], the “selectivity between ERK and Stat1 phosphorylation” value was “little selectivity”. Moreover, the “inhibition of Stat1 phosphorylation” value with Stat1 phosphorylation was “inhibited Stat1 phosphorylation potently”.
